{"source": "patent US20140155389A1", "about": "“BICYCLIC INHIBITORS OF ALK” (ABBVIE INC., priority 2011, published 2014)"}
{"biological_target": "T1, ALK (Homo sapiens, UniProt Q9UM73)", "T1 construct": "purchased Millipore", "T1 sequence (Q9UM73 19-1620)": "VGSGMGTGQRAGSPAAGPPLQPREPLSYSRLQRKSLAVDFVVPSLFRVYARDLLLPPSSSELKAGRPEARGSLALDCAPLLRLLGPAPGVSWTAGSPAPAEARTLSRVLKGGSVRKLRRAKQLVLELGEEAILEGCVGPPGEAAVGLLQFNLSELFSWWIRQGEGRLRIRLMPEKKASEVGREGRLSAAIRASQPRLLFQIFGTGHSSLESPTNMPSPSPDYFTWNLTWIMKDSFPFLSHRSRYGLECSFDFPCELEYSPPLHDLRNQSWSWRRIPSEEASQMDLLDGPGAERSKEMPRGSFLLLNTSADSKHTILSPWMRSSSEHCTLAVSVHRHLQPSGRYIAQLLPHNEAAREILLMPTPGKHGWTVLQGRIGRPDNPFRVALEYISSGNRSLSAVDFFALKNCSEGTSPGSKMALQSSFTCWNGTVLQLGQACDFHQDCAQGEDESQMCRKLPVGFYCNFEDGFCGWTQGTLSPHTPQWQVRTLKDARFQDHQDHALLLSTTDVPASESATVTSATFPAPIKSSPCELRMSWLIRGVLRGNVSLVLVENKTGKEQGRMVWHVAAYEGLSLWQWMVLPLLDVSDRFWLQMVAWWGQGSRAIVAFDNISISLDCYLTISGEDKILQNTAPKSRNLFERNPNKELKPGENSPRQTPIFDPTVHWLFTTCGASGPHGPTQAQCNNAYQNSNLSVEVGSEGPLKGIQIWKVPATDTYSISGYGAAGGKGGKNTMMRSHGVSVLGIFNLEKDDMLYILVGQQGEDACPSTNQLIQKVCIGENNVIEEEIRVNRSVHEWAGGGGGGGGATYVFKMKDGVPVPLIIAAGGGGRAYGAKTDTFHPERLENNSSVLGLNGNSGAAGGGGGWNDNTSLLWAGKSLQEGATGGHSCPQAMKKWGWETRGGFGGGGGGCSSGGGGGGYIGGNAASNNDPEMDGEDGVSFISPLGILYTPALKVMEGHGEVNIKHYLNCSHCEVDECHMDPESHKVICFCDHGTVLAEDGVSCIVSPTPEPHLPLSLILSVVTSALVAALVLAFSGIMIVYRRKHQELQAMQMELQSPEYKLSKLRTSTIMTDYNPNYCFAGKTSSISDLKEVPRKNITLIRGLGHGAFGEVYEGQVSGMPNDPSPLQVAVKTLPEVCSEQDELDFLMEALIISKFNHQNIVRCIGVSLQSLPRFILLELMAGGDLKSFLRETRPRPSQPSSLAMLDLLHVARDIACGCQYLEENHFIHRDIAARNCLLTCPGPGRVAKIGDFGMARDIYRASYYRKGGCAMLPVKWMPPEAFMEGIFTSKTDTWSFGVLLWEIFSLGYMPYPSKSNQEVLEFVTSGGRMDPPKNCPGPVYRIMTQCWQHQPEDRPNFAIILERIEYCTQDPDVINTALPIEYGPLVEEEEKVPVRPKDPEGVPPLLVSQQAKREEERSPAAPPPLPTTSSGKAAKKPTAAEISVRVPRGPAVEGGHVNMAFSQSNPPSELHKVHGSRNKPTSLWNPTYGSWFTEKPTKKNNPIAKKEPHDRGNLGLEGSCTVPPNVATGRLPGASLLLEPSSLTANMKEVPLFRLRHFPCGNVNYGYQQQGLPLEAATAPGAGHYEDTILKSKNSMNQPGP", "assay": "ALK kinase assay (HTRF)", "format": "biochemical", "conditions": "apparent Ki from IC50 by Cheng-Prusoff; ALK (Millipore) 3 nM or 4 nM, 50 μM ATP, 1 h at room temperature; read-out: HTRF_ALK Human - Ki", "units": {"Ki": "nM"}}
{"compound": "COc1cc(N2CCNCC2)ccc1Nc1nc(Nc2cc(Cl)ccc2F)cc2cn[nH]c(=O)c12", "note": "[Example 25, 7-[(5-chloro-2-fluorophenyl)amino]-5-{[2-methoxy-4-(piperazin-1-yl)phenyl]amino}pyrido[3,4-d]pyridazin-4(3H)-one]", "Ki": 6}
{"compound": "COc1cc(N2CCNCC2)ccc1Nc1nc(Nc2cc(F)ccc2Cl)cc2cn[nH]c(=O)c12", "note": "[Example 27, 7-[(2-chloro-5-fluorophenyl)amino]-5-{[2-methoxy-4-(piperazin-1-yl)phenyl]amino}pyrido[3,4-d]pyridazin-4(3H)-one]", "Ki": 3}
{"compound": "COc1cc(N2CCNCC2)ccc1Nc1nc(Nc2cc(Cl)ccc2Cl)cc2cn[nH]c(=O)c12", "note": "[Example 28, 7-[(2,5-dichlorophenyl)amino]-5-{[2-methoxy-4-(piperazin-1-yl)phenyl]amino}pyrido[3,4-d]pyridazin-4(3H)-one]", "Ki": 4}
{"compound": "COc1cc(N2CCNCC2)ccc1Nc1nc(Nc2c(F)cccc2Cl)cc2cn[nH]c(=O)c12", "note": "[Example 29, 7-[(2-chloro-6-fluorophenyl)amino]-5-{[2-methoxy-4-(piperazin-1-yl)phenyl]amino}pyrido[3,4-d]pyridazin-4(3H)-one]", "Ki": 1}
{"compound": "COc1cc(N2CCN(C)CC2)ccc1Nc1nc(Cc2c(Cl)cccc2Cl)cc2cn[nH]c(=O)c12", "note": "[Example 30, 7-(2,6-dichlorobenzyl)-5-{[2-methoxy-4-(4-methylpiperazin-1-yl)phenyl]amino}pyrido[3,4-d]pyridazin-4(3H)-one]", "Ki": 3}
{"compound": "COc1cc(N2CCNCC2)ccc1Nc1nc(Nc2cc(Cl)cc(Cl)c2)cc2cn[nH]c(=O)c12", "note": "[Example 31, 7-[(3,5-dichlorophenyl)amino]-5-{[2-methoxy-4-(piperazin-1-yl)phenyl]amino}pyrido[3,4-d]pyridazin-4(3H)-one]", "Ki": 19}
{"compound": "COc1cc(N2CCNCC2)ccc1Nc1nc(Nc2c(F)cccc2F)cc2cn[nH]c(=O)c12", "note": "[Example 32, 7-[(2,6-difluorophenyl)amino]-5-{[2-methoxy-4-(piperazin-1-yl)phenyl]amino}pyrido[3,4-d]pyridazin-4(3H)-one]", "Ki": 2}
{"compound": "COc1cc(N2CCNCC2)ccc1Nc1nc(Nc2c(Cl)cncc2Cl)cc2cn[nH]c(=O)c12", "note": "[Example 33, 7-[(3,5-dichloropyridin-4-yl)amino]-5-{[2-methoxy-4-(piperazin-1-yl)phenyl]amino}pyrido[3,4-d]pyridazin-4(3H)-one]", "Ki": 0.2}
{"compound": "COc1cc(N2CCNCC2)ccc1Nc1nc(Nc2ccc(Cl)cc2Cl)cc2cnnc(O)c12", "note": "[Example 34, 7-[(2,4-dichlorophenyl)amino]-5-{[2-methoxy-4-(piperazin-1-yl)phenyl]amino}pyrido[3,4-d]pyridazin-4-ol]", "Ki": 4}
{"compound": "COc1cc(N2CCNCC2)ccc1Nc1nc(Nc2c(Cl)cc(F)cc2Cl)cc2cnnc(O)c12", "note": "[Example 35, 7-[(2,6-dichloro-4-fluorophenyl)amino]-5-{[2-methoxy-4-(piperazin-1-yl)phenyl]amino}pyrido[3,4-d]pyridazin-4-ol]", "Ki": 1}
{"compound": "COCCNc1cc2cnnc(O)c2c(Nc2ccc(N3CCNCC3)cc2OC)n1", "note": "[Example 36, 7-[(2-methoxyethyl)amino]-5-{[2-methoxy-4-(piperazin-1-yl)phenyl]amino}pyrido[3,4-d]pyridazin-4-ol]", "Ki": 26}
{"compound": "COc1cc(N2CCNCC2)ccc1Nc1nc(Nc2cccc(F)c2F)cc2cn[nH]c(=O)c12", "note": "[Example 37, 7-[(2,3-difluorophenyl)amino]-5-{[2-methoxy-4-(piperazin-1-yl)phenyl]amino}pyrido[3,4-d]pyridazin-4(3H)-one]", "Ki": 3}
{"compound": "COc1cc(N2CCNCC2)ccc1Nc1nc(NCc2ccco2)cc2cnnc(O)c12", "note": "[Example 38, 7-[(furan-2-ylmethyl)amino]-5-{[2-methoxy-4-(piperazin-1-yl)phenyl]amino}pyrido[3,4-d]pyridazin-4-ol]", "Ki": 16}
{"compound": "COc1cc(N2CCNCC2)ccc1Nc1nc(N2CCCCC2)cc2cn[nH]c(=O)c12", "note": "[Example 39, 5-{[2-methoxy-4-(piperazin-1-yl)phenyl]amino}-7-(piperidin-1-yl)pyrido[3,4-d]pyridazin-4(3H)-one]", "Ki": 7}
{"compound": "COc1cc(N2CCNCC2)ccc1Nc1nc(NCc2ccccc2)cc2cn[nH]c(=O)c12", "note": "[Example 40, 7-(benzylamino)-5-{[2-methoxy-4-(piperazin-1-yl)phenyl]amino}pyrido[3,4-d]pyridazin-4(3H)-one]", "Ki": 36}
{"compound": "COc1cc(N2CCNCC2)ccc1Nc1nc(-c2ccccc2)cc2cn[nH]c(=O)c12", "note": "[Example 41, 5-{[2-methoxy-4-(piperazin-1-yl)phenyl]amino}-7-phenylpyrido[3,4-d]pyridazin-4(3H)-one]", "Ki": 28}
{"compound": "O=c1[nH]ncc2cc(Cc3c(Cl)cccc3Cl)nc(Nc3c(F)cc(N4CCNCC4)cc3F)c12", "note": "[Example 42, 7-(2,6-dichlorobenzyl)-5-{[2,6-difluoro-4-(piperazin-1-yl)phenyl]amino}pyrido[3,4-d]pyridazin-4(3H)-one]", "Ki": 25}
{"compound": "COc1cc(N2CCNCC2)ccc1Nc1nc(Nc2ccccn2)cc2cn[nH]c(=O)c12", "note": "[Example 43, 5-{[2-methoxy-4-(piperazin-1-yl)phenyl]amino}-7-(pyridin-2-ylamino)pyrido[3,4-d]pyridazin-4(3H)-one]", "Ki": 15}
{"compound": "COc1cc(N2CCNCC2)ccc1Nc1nc(Nc2cccnc2)cc2cn[nH]c(=O)c12", "note": "[Example 44, 5-{[2-methoxy-4-(piperazin-1-yl)phenyl]amino}-7-(pyridin-3-ylamino)pyrido[3,4-d]pyridazin-4(3H)-one]", "Ki": 13}
{"compound": "COc1cc(N2CCNCC2)ccc1Nc1nc(NCCN(C)C)cc2cn[nH]c(=O)c12", "note": "[Example 45, 7-{[2-(dimethylamino)ethyl]amino}-5-{[2-methoxy-4-(piperazin-1-yl)phenyl]amino}pyrido[3,4-d]pyridazin-4(3H)-one]", "Ki": 51}
{"compound": "COc1cc(N2CCNCC2)ccc1Nc1nc(NC2CCCCC2)cc2cn[nH]c(=O)c12", "note": "[Example 46, 7-(cyclohexylamino)-5-{[2-methoxy-4-(piperazin-1-yl)phenyl]amino}pyrido[3,4-d]pyridazin-4(3H)-one]", "Ki": 3}
{"compound": "COc1cc(N2CCNCC2)ccc1Nc1nc(NCCc2ccccn2)cc2cnnc(O)c12", "note": "[Example 47, 5-{[2-methoxy-4-(piperazin-1-yl)phenyl]amino}-7-{[2-(pyridin-2-yl)ethyl]amino}pyrido[3,4-d]pyridazin-4-ol]", "Ki": 53}
{"compound": "COc1cc(N2CCNCC2)ccc1Nc1nc(Nc2ccccc2F)cc2cn[nH]c(=O)c12", "note": "[Example 48, 7-[(2-fluorophenyl)amino]-5-{[2-methoxy-4-(piperazin-1-yl)phenyl]amino}pyrido[3,4-d]pyridazin-4(3H)-one]", "Ki": 4}
{"compound": "COc1cc(N2CCNCC2)ccc1Nc1nc(Nc2c(C)cccc2C)cc2cn[nH]c(=O)c12", "note": "[Example 49, 7-[(2,6-dimethylphenyl)amino]-5-{[2-methoxy-4-(piperazin-1-yl)phenyl]amino}pyrido[3,4-d]pyridazin-4(3H)-one]", "Ki": 1}
{"compound": "COc1cc(N2CCNCC2)ccc1Nc1nc(Nc2ncccc2Cl)cc2cn[nH]c(=O)c12", "note": "[Example 50, 7-[(3-chloropyridin-2-yl)amino]-5-{[2-methoxy-4-(piperazin-1-yl)phenyl]amino}pyrido[3,4-d]pyridazin-4(3H)-one]", "Ki": 9}
{"compound": "COc1cc(N2CCNCC2)ccc1Nc1nc(Nc2cccc(Cl)c2Cl)cc2cn[nH]c(=O)c12", "note": "[Example 51, 7-[(2,3-dichlorophenyl)amino]-5-{[2-methoxy-4-(piperazin-1-yl)phenyl]amino}pyrido[3,4-d]pyridazin-4(3H)-one]", "Ki": 2}
{"compound": "COc1cc(N2CCNCC2)ccc1Nc1nc(Nc2c(F)cc(F)cc2F)cc2cn[nH]c(=O)c12", "note": "[Example 52, 5-{[2-methoxy-4-(piperazin-1-yl)phenyl]amino}-7-[(2,4,6-trifluorophenyl)amino]pyrido[3,4-d]pyridazin-4(3H)-one]", "Ki": 2}
{"compound": "COc1cc(N2CCNCC2)ccc1Nc1nc(Nc2ccc(F)c(F)c2F)cc2cn[nH]c(=O)c12", "note": "[Example 53, 5-{[2-methoxy-4-(piperazin-1-yl)phenyl]amino}-7-[(2,3,4-trifluorophenyl)amino]pyrido[3,4-d]pyridazin-4(3H)-one]", "Ki": 4}
{"compound": "COc1cc(N2CCNCC2)ccc1Nc1nc(Nc2cccc(Cl)c2F)cc2cnnc(O)c12", "note": "[Example 54, 7-[(3-chloro-2-fluorophenyl)amino]-5-{[2-methoxy-4-(piperazin-1-yl)phenyl]amino}pyrido[3,4-d]pyridazin-4-ol]", "Ki": 4}
{"compound": "COc1cc(N2CCNCC2)ccc1Nc1nc(NC2CCOCC2)cc2cnnc(O)c12", "note": "[Example 55, 5-{[2-methoxy-4-(piperazin-1-yl)phenyl]amino}-7-(tetrahydro-2H-pyran-4-ylamino)pyrido[3,4-d]pyridazin-4-ol]", "Ki": 6}
{"compound": "COc1cc(N2CCNCC2)ccc1Nc1nc(Nc2nccs2)cc2cn[nH]c(=O)c12", "note": "[Example 56, 5-{[2-methoxy-4-(piperazin-1-yl)phenyl]amino}-7-(1,3-thiazol-2-ylamino)pyrido[3,4-d]pyridazin-4(3H)-one]", "Ki": 5}
{"compound": "O=c1[nH]ncc2cc(Cc3c(Cl)cccc3Cl)nc(Nc3ccc(N4CCNCC4)cc3Cl)c12", "note": "[Example 57, 5-{[2-chloro-4-(piperazin-1-yl)phenyl]amino}-7-(2,6-dichlorobenzyl)pyrido[3,4-d]pyridazin-4(3H)-one]", "Ki": 2}
{"compound": "COc1cc(N2CCNCC2)ccc1Nc1nc(NC2CCN(C)CC2)cc2cn[nH]c(=O)c12", "note": "[Example 58, 5-{[2-methoxy-4-(piperazin-1-yl)phenyl]amino}-7-[(1-methylpiperidin-4-yl)amino]pyrido[3,4-d]pyridazin-4(3H)-one]", "Ki": 4}
{"compound": "COc1c(Nc2nc(Cc3c(Cl)cccc3Cl)cc3cnnc(O)c23)ccc(N2CCNCC2)c1F", "note": "[Example 59, 7-(2,6-dichlorobenzyl)-5-{[3-fluoro-2-methoxy-4-(piperazin-1-yl)phenyl]amino}pyrido[3,4-d]pyridazin-4-ol]", "Ki": 4}
{"compound": "COc1cc(N2CCNCC2)ccc1Nc1nc(Nc2ccncc2Cl)cc2cn[nH]c(=O)c12", "note": "[Example 60, 7-[(3-chloropyridin-4-yl)amino]-5-{[2-methoxy-4-(piperazin-1-yl)phenyl]amino}pyrido[3,4-d]pyridazin-4(3H)-one]", "Ki": 3}
